Measured values published in ChEMBL document CHEMBL1201862, “PubChem BioAssay data set” (2004).
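Cultured in 96-well plates, cells were exposed to test compound for 48 hours across five concentrations. Here, GI50 denotes the concentration required for 50% inhibition of growth.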 Activity calls are given as the source filed them. Rule as the data show it: active = GI50 up to about 1.1 µM and inactive = higher.

Key:
Assay in all cases: NCI anticancer screen, dose series, 48 h
786-0 = system: 786-0
A498 = system: A498
A549 = system: A549
ACHN = system: ACHN
BT-549 = system: BT-549
CAKI-1 = system: CAKI-1
CCRF-CEM = system: CCRF-CEM
COLO 205 = system: COLO 205
DU-145 = system: DU-145
EKVX = system: EKVX
HCC 2998 = system: HCC 2998
HCT-116 = system: HCT-116
HCT-15 = system: HCT-15
HL-60 = system: HL-60
HOP-62 = system: HOP-62
HOP-92 = system: HOP-92
HT-29 = system: HT-29
Hs-578T = system: Hs-578T
IGROV-1 = system: IGROV-1
K562 = system: K562
KM12 = system: KM12
LOX IMVI = system: LOX IMVI
M14 = system: M14
MCF7 = system: MCF7
MDA-MB-231 = system: MDA-MB-231
MDA-MB-435 = system: MDA-MB-435
MDA-N = system: MDA-N
MOLT-4 = system: MOLT-4
Malme-3M = system: Malme-3M
NCI-H226 = system: NCI-H226
NCI-H23 = system: NCI-H23
NCI-H460 = system: NCI-H460
NCI-H522 = system: NCI-H522
NCI/ADR-RES = system: NCI/ADR-RES
OVCAR-3 = system: OVCAR-3
OVCAR-4 = system: OVCAR-4
OVCAR-5 = system: OVCAR-5
OVCAR-8 = system: OVCAR-8
PC-3 = system: PC-3
RPMI-8226 = system: RPMI-8226
RXF 393 = system: RXF 393
SF-268 = system: SF-268
SF-295 = system: SF-295
SK-MEL-28 = system: SK-MEL-28
SK-MEL-2 = system: SK-MEL-2
SK-MEL-5 = system: SK-MEL-5
SK-OV-3 = system: SK-OV-3
SN12C = system: SN12C
SNB-19 = system: SNB-19
SNB-75 = system: SNB-75
SW-620 = system: SW-620
T47D = system: T47D
TK-10 = system: TK-10
U-251 = system: U-251
UACC-257 = system: UACC-257
UACC-62 = system: UACC-62
UO-31 = system: UO-31

## COC(=O)/C=C\C(C#N)(C#N)/N=C/c1ccc(Br)s1
786-0
  GI50: 5.42 µM (inactive)
A498
  GI50: 17.7 µM (inactive)
A549
  GI50: 21.2 µM (inactive)
ACHN
  GI50: 2.29 µM (inactive)
BT-549
  GI50: 4.79 µM (inactive)
CAKI-1
  GI50: 2.45 µM (inactive)
CCRF-CEM
  GI50: 0.853 µM (active)
COLO 205
  GI50: 2.31 µM (inactive)
DU-145
  GI50: 10.7 µM (inactive)
EKVX
  GI50: 12.2 µM (inactive)
HCC 2998
  GI50: 19.1 µM (inactive)
HCT-116
  GI50: 4.89 µM (inactive)
HCT-15
  GI50: 2.18 µM
HL-60
  GI50: 1.85 µM (inactive)
HOP-62
  GI50: 17.6 µM (inactive)
HOP-92
  GI50: 1.93 µM (inactive)
HT-29
  GI50: 2.35 µM (inactive)
Hs-578T
  GI50: 25.3 µM (inactive)
IGROV-1
  GI50: 14.9 µM (inactive)
K562
  GI50: 4.3 µM (inactive)
KM12
  GI50: 16.3 µM (inactive)
LOX IMVI
  GI50: 2.16 µM (inactive)
M14
  GI50: 3.1 µM (inactive)
MCF7
  GI50: 2.47 µM (inactive)
MDA-MB-231
  GI50: 2.18 µM (inactive)
MDA-MB-435
  GI50: 5.56 µM (inactive)
MDA-N
  GI50: 7.98 µM (inactive)
MOLT-4
  GI50: 2.07 µM (inactive)
Malme-3M
  GI50: 1.77 µM (inactive)
NCI-H226
  GI50: 3.18 µM (inactive)
NCI-H23
  GI50: 9.2 µM (inactive)
NCI-H460
  GI50: 20.8 µM (inactive)
NCI-H522
  GI50: 1.07 µM (active)
NCI/ADR-RES
  GI50: 18.6 µM (inactive)
OVCAR-3
  GI50: 11 µM (inactive)
OVCAR-4
  GI50: 6.61 µM (inactive)
OVCAR-5
  GI50: 9.64 µM (inactive)
OVCAR-8
  GI50: 3.98 µM (inactive)
PC-3
  GI50: 13.4 µM (inactive)
RPMI-8226
  GI50: 2.32 µM (inactive)
RXF 393
  GI50: 2.03 µM (inactive)
SF-268
  GI50: 18.5 µM (inactive)
SF-295
  GI50: 17.7 µM (inactive)
SK-MEL-28
  GI50: 16.1 µM (inactive)
SK-MEL-2
  GI50: 17.3 µM (inactive)
SK-MEL-5
  GI50: 11.9 µM (inactive)
SK-OV-3
  GI50: 19.2 µM (inactive)
SN12C
  GI50: 15.2 µM (inactive)
SNB-19
  GI50: 14.8 µM (inactive)
SNB-75
  GI50: 15.2 µM (inactive)
SW-620
  GI50: 2.07 µM (inactive)
T47D
  GI50: 3.52 µM (inactive)
TK-10
  GI50: 2.38 µM (inactive)
U-251
  GI50: 16 µM (inactive)
UACC-257
  GI50: 15.1 µM (inactive)
UACC-62
  GI50: 10.7 µM (inactive)
UO-31
  GI50: 2.39 µM (inactive)

## CC(C)(C)CC(C)(C)c1cc(O)c(O)c(CN2CCCCC2)c1
786-0
  GI50: 13.4 µM (inactive)
A498
  GI50: 14.3 µM (inactive)
A549
  GI50: 17.1 µM (inactive)
ACHN
  GI50: 12.9 µM (inactive)
BT-549
  GI50: 15.1 µM (inactive)
CAKI-1
  GI50: 14.2 µM (inactive)
COLO 205
  GI50: 12.7 µM (inactive)
DU-145
  GI50: 14.5 µM (inactive)
EKVX
  GI50: 12.7 µM (inactive)
HCC 2998
  GI50: 10.6 µM (inactive)
HCT-116
  GI50: 15.3 µM (inactive)
HCT-15
  GI50: 4.01 µM
HL-60
  GI50: 13.3 µM (inactive)
HOP-62
  GI50: 15.5 µM (inactive)
HOP-92
  GI50: 17.5 µM (inactive)
HT-29
  GI50: 5.69 µM (inactive)
Hs-578T
  GI50: 15.6 µM (inactive)
IGROV-1
  GI50: 17.5 µM (inactive)
K562
  GI50: 4.25 µM (inactive)
KM12
  GI50: 17.5 µM (inactive)
LOX IMVI
  GI50: 12 µM (inactive)
M14
  GI50: 15.6 µM (inactive)
MCF7
  GI50: 12.5 µM (inactive)
MDA-MB-231
  GI50: 17.7 µM (inactive)
MDA-MB-435
  GI50: 16.9 µM (inactive)
MDA-N
  GI50: 15.1 µM (inactive)
MOLT-4
  GI50: 4.35 µM (inactive)
Malme-3M
  GI50: 12.8 µM (inactive)
NCI-H226
  GI50: 16.7 µM (inactive)
NCI-H23
  GI50: 16.1 µM (inactive)
NCI-H460
  GI50: 11.7 µM (inactive)
NCI-H522
  GI50: 10.8 µM (inactive)
NCI/ADR-RES
  GI50: 5.09 µM (inactive)
OVCAR-3
  GI50: 14.7 µM (inactive)
OVCAR-4
  GI50: 19.2 µM (inactive)
OVCAR-5
  GI50: 17.4 µM (inactive)
OVCAR-8
  GI50: 15.6 µM (inactive)
PC-3
  GI50: 13.9 µM (inactive)
RPMI-8226
  GI50: 12.8 µM (inactive)
RXF 393
  GI50: 12.8 µM (inactive)
SF-268
  GI50: 12.6 µM (inactive)
SF-295
  GI50: 17.5 µM (inactive)
SK-MEL-28
  GI50: 17.7 µM (inactive)
SK-MEL-5
  GI50: 15.6 µM (inactive)
SK-OV-3
  GI50: 19.8 µM (inactive)
SN12C
  GI50: 15.7 µM (inactive)
SNB-19
  GI50: 15.3 µM (inactive)
SNB-75
  GI50: 17.7 µM (inactive)
SW-620
  GI50: 13.2 µM (inactive)
T47D
  GI50: 11.6 µM (inactive)
TK-10
  GI50: 16.1 µM (inactive)
U-251
  GI50: 11.9 µM (inactive)
UACC-257
  GI50: 13.3 µM (inactive)
UACC-62
  GI50: 16.3 µM (inactive)
UO-31
  GI50: 13.3 µM (inactive)
